The results in this text go back to patent US20100029546A1, “preparation method of galactosyl-has magnetic nanoparticles containing adriamycin” (priority 2004, published 2010).

One data set relates to liver cancer. In words: Animal test of liver cancer therapy, hepatic artery injection. Type of data set: in vivo. An excerpt: The result could be found in animal test: the group having NS hepatic artery injection lived 12.7 days on average; the group having lib-adriamycin hepatic artery injection lived 18.7 days on average; HSA-NP hepatic artery injection lived 20.7 days on average; the group having Gal-HAS-NP treatment lived 39.4 days on average.
Meanwhile, the aspiration of magnetic nanoparicles produced a longer functional diameter, which caused embolism in tumor blood vessels and lack of blood and oxygen in tumor in order to improve the sensitivity and effect of chemotherapeutics. Without adding magnetic field, the distribution rate of ADM-GHMN in tumorous and normal livers was 2.74, which also had some anti-tumor effects.

Data set [1] can be described thus: Drug release in vitro, dynamic dialysis. Format: physicochemical. Particulars: for Releasing (%): physiological saline. The method, then:
Drug releases in vitro. According to dynamic dialysis, taking physiological saline as medium, 4 ml of the solution would be taken at certain time, and the same volume of the medium would be added in. The absorbency was measured to get the solving efficiency according to the standard curve formula. At the same time, the drug releasing experiment of adriamycin standard substance was done in order to observe the control release of the dialysis bag.

The conditions of data set [2]: rabbit.
In the next data set the test system is HepG2 cell. As to the kind of experiment: Transwell invasion in vitro. Type of data set: cell-based. An excerpt: The tumor cell's mobility and the invasion are close to each other. The tumor cell has the ability of amoeba type's movement, and it was confirmed by many people. Simultaneously, many overseas scholars reported that there is a direct ratio relation between the mobility and the invasion ability of the cancer cell. […] There is significant difference between any two groups. […] HSA-magnetic-adriamycin-nanoparticles group is different from galactosyl-HSA-adriamycin-nanoparticles group in it.

A further data set has as its system hepatocelular cell. As to the kind of experiment: Apoptosis, quadrilateral zone in drug toxicity experiment. Format: cell-based.

In turn, `COc1cccc2c1C(=O)c1c(O)c3c(c(O)c1C2=O)C[C@@](O)(C(=O)CO)C[C@@H]3O[C@H]1C[C@H](N)[C@H](O)[C@H](C)O1` [adriamycin] registered an average survival with liver cancer (hepatic artery injection) of 18.7 days. Besides, the “tumor necrosis extent in pathological section” value in the data set with liver cancer (in vivo) is listed as “no badly necrosis but most light or medium leveled necrosis”. For the same compound, the “Releasing (%)” value in data set [1] (0.5 h) worked out at 78.21%. In addition, in data set [1] (1 h), the “Releasing (%)” value is 91.34%. Moreover, in data set [1] (2 h), the “Releasing (%)” value is recorded as 100%. The “release / releasing efficiency” value in data set [1] (time not stated (Tab 6)) worked out at 91.34%. Besides, the C l in data set [2] was 0.4233 ± 0.3223 mg/m/(mg/l). In data set [2] (elimination phase), this compound returned a T1/2β of 883.2164 ± 2198.4914 m. Moreover, in data set [2] (in vivo), the A stood at 0.1362 ± 0.0185 mg · l − 1, the “AUC0→∞” value worked out at 14.8163 ± 24.789 m · mg/l, the B is given as 0.0109 ± 0.0028 mg · l − 1 and the Gamma came out at 0.5463 ± 0.1663 m − 1. In data set [2] (in vivo), the T1/2α is listed as 13.8169 ± 3.5845 m, the V c is recorded as 18.6816 ± 2.3663 (mg)/(mg/l) and the α is reported as 0.0523 ± 0.0161 m − 1. In addition, the “inhibition of invasive power” value in the data set with HepG2 cell was “can inhibit invasive power of the HepG2 cell”. For the same compound, in the data set with hepatocelular cell, the “characteristic quadrilateral zone present” value is on record as “characteristic quadrilateral zone”.
